Data from EP0005299A1, “Substituted 1-phenyl-2,3,4,5-tetrahydro-1H-3-benzazepines, process for the preparation thereof, and pharmaceutical compositions containing them” (priority 1978, dated 1979).
Structures can show the parent of a compound that is named as a salt.

How the values were obtained:
muricidal behavior = assay: Anti-muricide assay; type: in vivo, Male Long Evans rats; settings: Rattus norvegicus, ip; rats, intraperitoneal injection, mouse presented at 30 and 60 minutes; dosage at which 50% of the tested rats do not kill mice
Experimental: Anti-muricide assay: Male Long Evans rats weighing 225-250 g are housed I rat per cage, and killers (rats show an instinctive mouse killing behavior (muricide)) are selected initially after being deprived of food for approximately 66 hours. This is the only time the rats are deprived of food. Food, ad libitum, is-avaiable on the cage floor since food bins are not practical because they afford a hiding place for mice. The rats are tested for muricidal behavior the following day and once a week thereafter; non-killers are always eliminated. A non-killer is a rat which fails to kill a mouse placed into his cage within 5 minutes. Drugs are tested in the afternoon of the day following this weekly check for persistance of the killing behavior. Since the rats are not deprived of food or water and rarely attempt to eat the mouse, this behavior is not motivated by hunger. Four weeks after the first test for killing, the rats are injected, i.p., with placebo and then tested 30/60 minutes after the injection. […] Only rats that consistantly kill mice placed in their home cages are used for drug testing. Every treatment-group is comprised of 5 rats. […] Blockade of muricidal behavior is determined by observing the number of surviving mice 5 minutes after being introduced into the rat cages.

[1] = Acute oral toxicity (LD50); settings: mouse, in vivo; oral dose in mice
methamphetamine = assay: Methamphetamine reversal assay; type: in vivo, mice

| SMILES | ED50 (muricidal behavior) [mg/kg] | LD50 [1] [mg/kg] | ED50 (methamphetamine; Mus musculus, po, 4 h) [mg/kg] | protection from methamphetamine lethality (methamphetamine; control, perphenazine at 1 mg/kg, aggregated mice, methamphetamine 15 mg/kg i.p.) |
| --- | --- | --- | --- | --- |
| CN1CCc2cc(Cl)c(OC(=O)N(C)C)cc2[C@H](c2ccccc2)C1 [(S)-7-chloro-8-dimethylaminocarbonyloxy-3-methyl-1-phenyl-2,3,4,5-tetrahydro-lH-3-benzazepine hydrochloride] | 5.7 | > 300 | 1.2 | – |
| OCCN1CCN(CCCN2c3ccccc3Sc3ccc(Cl)cc32)CC1 [perphenazine, reference compound] | – | – | – | complete protection |
